Test [1] concerns the target T1, stromelysin (MMP-3) (Homo sapiens, UniProt P08254).
T1 construct: enzymatic activity of the catalytic domains of human stromelysin and of neutrophil collagenase; made in house
As to the kind of experiment: Enzyme inhibition of the catalytic domain of human stromelysin (fluorogenic substrate). The note with it: 15 min preincubation, pH=6.5, fluorescence 328 nm (ex)/393 nm (em). Type of test: biochemical. How it is done: (§1) Preparation and determination of the enzymatic activity of the catalytic domains of human stromelysin and of neutrophil collagenase.
(§2) The enzymes stromelysin (MMP-3) and neutrophil collagenase (MMP-8) were prepared according to Ye et al. (Biochemistry; 31 (1992) pages 11231-11235). To measure the enzyme activity or the enzyme inhibitor action, 70 μl of buffer solution and 10 μl of enzyme solution are incubated for 15 min with 10 μl of a 10% strength (v/v) aqueous dimethyl sulfoxide solution, which optionally contains the enzyme inhibitor. After addition of 10 μl of a 10% strength (v/v) aqueous dimethyl sulfoxide solution which contains 1 mil/L of the substrates, the enzyme reaction is monitored by fluorescence spectroscopy (328 nm (ex)/393 nm(em)). The enzyme activity is shown as the extinction increase/min. The IC50 values listed in Table 2 are determined as those inhibitor concentrations which in each case lead to a 50% inhibition of the enzyme.
(§3) The buffer solution contains 0.05% Brij (Sigma, Deisenhofen, Germany) and also 0.1 mol/L tris/HCl, 0.1 mol/L NaCl, 0.01 mol/L CaCl2 and 0.1 mol/L piperazine-N,N′-bis(2-ethanesulfonic acid) (pH=6.5). The enzyme solution contains 5 μg/ml of one of the enzyme domains prepared according to Ye et al. The substrate solution contains 1 mil/L of the fluorogenic substrate (7-methoxycoumarin-4-yl)acetyl-Pro-Leu-Gly-Leu-3-(2′,4′-dinitrophenyl)-L-2,3-diaminopropionyl-Ala-Arg-NH2 (Bachem, Heidelberg, Germany).

Test [2] concerns the target T2, neutrophil collagenase (MMP-8) (Homo sapiens, UniProt P22894).
T2 construct: enzymatic activity of the catalytic domains of human stromelysin and of neutrophil collagenase; made in house
As to the kind of experiment: Enzyme inhibition of the catalytic domain of neutrophil collagenase (fluorogenic substrate). The note with it: 15 min preincubation, pH=6.5, fluorescence 328 nm (ex)/393 nm (em). The format is biochemical. The protocol:
as §1, §2, §3

This note sets out measurements from patent US6355673B1, “Substituted diaminocarboxylic acids” (Aventis Pharma Deutschland GmbH, priority 1997, dated 2002).

The structures appear in SMILES notation.

T1 sequence (P08254 100-272 limits assumed): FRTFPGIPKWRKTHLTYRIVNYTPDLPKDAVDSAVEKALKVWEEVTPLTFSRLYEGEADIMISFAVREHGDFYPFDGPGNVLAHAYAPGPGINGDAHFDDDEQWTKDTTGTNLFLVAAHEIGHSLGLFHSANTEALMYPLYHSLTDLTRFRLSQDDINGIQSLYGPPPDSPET
T2 sequence (P22894 100-262 limits assumed): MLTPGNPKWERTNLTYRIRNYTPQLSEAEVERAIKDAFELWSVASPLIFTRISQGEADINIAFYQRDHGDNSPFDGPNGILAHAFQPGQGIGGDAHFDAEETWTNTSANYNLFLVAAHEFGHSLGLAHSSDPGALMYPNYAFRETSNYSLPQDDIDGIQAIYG

Take `O=C(O)[C@H](CCCn1sc2ccccc2c1=O)NS(=O)(=O)c1ccc(-c2ccc(Cl)cc2)cc1` [Example 114]: the values for the IC50 in test [1] and in test [2] were 5 nM and 2 nM, respectively.

As for `O=C(NCCC[C@H](NS(=O)(=O)c1ccc(-c2ccc(Cl)cc2)cc1)C(=O)O)c1ccc(Cl)cc1Cl` [Example 115], the IC50 in test [1] worked out at 5 nM; in test [2] it was 3 nM.

Consider `O=C(Cc1ccc(F)cc1)NCCC[C@H](NS(=O)(=O)c1ccc(-c2ccc(Cl)cc2)cc1)C(=O)O` [Example 116], for which the IC50 was found to be 20 nM in test [1] and 4 nM in test [2].

As to `O=C(NCCC[C@H](NS(=O)(=O)c1ccc(-c2ccc(Cl)cc2)cc1)C(=O)O)c1ccccc1` [Example 117], the figures for the IC50 in test [1] and in test [2] were 9 nM and 2 nM, respectively.

With `CC(C)COC(=O)NCCC[C@H](NS(=O)(=O)c1ccc(-c2ccc(Cl)cc2)cc1)C(=O)O` [Example 118], the IC50 was determined as 10 nM in test [1] and 4 nM in test [2].

As to `Cc1ccc(C(=O)NCCC[C@H](NS(=O)(=O)c2ccc(-c3ccc(Cl)cc3)cc2)C(=O)O)s1` [Example 120], the IC50 stood at 20 nM in test [1] and 4 nM in test [2].

In the case of `O=C(NCCC[C@H](NS(=O)(=O)c1ccc(-c2ccc(Cl)cc2)cc1)C(=O)O)c1cccs1` [Example 122], the IC50 in test [1] turned out to be 3 nM; in test [2], 2 nM.

In the case of `O=C(NCCC[C@H](NS(=O)(=O)c1ccc(-c2ccc(Cl)cc2)cc1)C(=O)O)c1ccc2[nH]nnc2c1` [Example 125], the IC50 in test [1] and in test [2] was 10 nM each time.

As for `O=C(NCCC[C@H](NS(=O)(=O)c1ccc(-c2ccc(Cl)cc2)cc1)C(=O)O)c1ccc2ncccc2c1` [Example 126], the figures for the IC50 in test [1] and in test [2] were 30 nM and 10 nM, respectively.

In the case of `O=C(NCCC[C@H](NS(=O)(=O)c1ccc(-c2ccc(Cl)cc2)cc1)C(=O)O)c1ccncc1` [Example 127], the results for the half-inhibitory concentration (IC50) in test [1] and in test [2] were 20 nM and 3 nM, respectively.

On to `O=C(O)[C@H](CCCNC(=O)N1CCOCC1)NS(=O)(=O)c1ccc(-c2ccc(Cl)cc2)cc1` [Example 128], for which the IC50 is 5 nM in test [1] and 2 nM in test [2].

On to `O=C(NCCC[C@H](NS(=O)(=O)c1ccc(-c2ccc(Cl)cc2)cc1)C(=O)O)c1ccccc1C(F)(F)F` [Example 129], for which the values for the IC50 in test [1] and in test [2] were 10 nM and 2 nM, respectively.

Turning to `O=C(NCCC[C@H](NS(=O)(=O)c1ccc(-c2ccc(Cl)cc2)cc1)C(=O)O)c1cccc(C(F)(F)F)c1` [Example 130], the IC50 was found to be 20 nM in test [1] and 4 nM in test [2].

`O=C(/C=C/c1ccc(F)cc1)NCCC[C@H](NS(=O)(=O)c1ccc(-c2ccc(Cl)cc2)cc1)C(=O)O` [Example 131]: the figures for the IC50 in test [1] and in test [2] were 20 nM and 5 nM, respectively.

Turning to `O=C(/C=C/c1ccc(Cl)cc1)NCCC[C@H](NS(=O)(=O)c1ccc(-c2ccc(Cl)cc2)cc1)C(=O)O` [Example 132], the IC50 is 30 nM in test [1] and 10 nM in test [2].

On to `O=C(CCc1ccccc1)NCCC[C@H](NS(=O)(=O)c1ccc(-c2ccc(Cl)cc2)cc1)C(=O)O` [Example 133], for which the figures for the IC50 in test [1] and in test [2] were 5 nM and 2 nM, respectively.

Turning to `O=C(O)[C@H](CCCN1C(=O)c2ccccc2S1(=O)=O)NS(=O)(=O)c1ccc(-c2ccc(Cl)cc2)cc1` [Example 134], the IC50 in test [1] is 5 nM; in test [2], 2 nM.

Consider `N#Cc1ccccc1C(=O)NCCC[C@H](NS(=O)(=O)c1ccc(-c2ccc(Cl)cc2)cc1)C(=O)O` [Example 135], for which the IC50 in test [1] was 30 nM; in test [2], 8 nM.

On to `CN(C)c1ccc(C(=O)NCCC[C@H](NS(=O)(=O)c2ccc(-c3ccc(Cl)cc3)cc2)C(=O)O)cc1` [Example 136], for which the figures for the IC50 in test [1] and in test [2] were 10 nM and 7 nM, respectively.

`CN(C)c1ccccc1C(=O)NCCC[C@H](NS(=O)(=O)c1ccc(-c2ccc(Cl)cc2)cc1)C(=O)O` [Example 137]: the IC50 in test [1] is 20 nM; in test [2] it was 7 nM.

As to `Cc1cc(C(=O)NCCC[C@H](NS(=O)(=O)c2ccc(-c3ccc(Cl)cc3)cc2)C(=O)O)ccc1[N+](=O)[O-]` [Example 138], the IC50 in test [1] is 30 nM; in test [2], 10 nM.

Consider `COc1cccc(OC)c1C(=O)NCCC[C@H](NS(=O)(=O)c1ccc(-c2ccc(Cl)cc2)cc1)C(=O)O` [Example 139], for which the IC50 in test [1] was found to be 50 nM; in test [2], 20 nM.

On to `O=C(/C=C/C1C=NC=N1)NCCC[C@H](NS(=O)(=O)c1ccc(-c2ccc(Cl)cc2)cc1)C(=O)O` (some centres unmarked) [Example 140], for which the figures for the 50% inhibitory concentration (IC50) in test [1] and in test [2] were 60 nM and 20 nM, respectively.

`O=C(NCCC[C@H](NS(=O)(=O)c1ccc(-c2ccc(Cl)cc2)cc1)C(=O)O)c1ccc2[nH]cnc2c1` [Example 141]: the half-inhibitory concentration (IC50) in test [1] and in test [2] was 10 nM in each case.

`NS(=O)(=O)c1ccc(C(=O)NCCC[C@H](NS(=O)(=O)c2ccc(-c3ccc(Cl)cc3)cc2)C(=O)O)cc1` [Example 142]: the IC50 was 10 nM in test [1] and 4 nM in test [2].

As for `O=C(O)[C@H](CCCNC(=O)N1CCCC1)NS(=O)(=O)c1ccc(-c2ccc(Cl)cc2)cc1` [Example 143], the figures for the IC50 in test [1] and in test [2] were 5 nM and 2 nM, respectively.

Consider `CN(CCC[C@H](NS(=O)(=O)c1ccc(-c2ccc(Cl)cc2)cc1)C(=O)O)C(=O)C1CC1` [Example 144], for which the results for the IC50 in test [1] and in test [2] were 10 nM and 3 nM, respectively.

As for `CN(CCC[C@H](NS(=O)(=O)c1ccc(-c2ccc(Cl)cc2)cc1)C(=O)O)Cc1ccccc1` [Example 145], the IC50 is 10 nM in test [1] and 5 nM in test [2].

`CC(C)(C)OC(=O)NCCC[C@H](NS(=O)(=O)c1ccc(-c2ccccc2)cc1)C(=O)O` [Example 146]: the values for the IC50 in test [1] and in test [2] were 30 nM and 3 nM, respectively.

As to `COc1ccccc1C(=O)NCCC[C@H](NS(=O)(=O)c1ccc(-c2ccc(Cl)cc2)cc1)C(=O)O` [Example 151], the IC50 in test [1] is 30 nM; in test [2], 10 nM.

For the molecule `COc1cccc(C(=O)NCCC[C@H](NS(=O)(=O)c2ccc(-c3ccc(Cl)cc3)cc2)C(=O)O)c1` [Example 152], the IC50 in test [1] turned out to be 60 nM; in test [2], 10 nM.

`Cn1cccc1C(=O)NCCC[C@H](NS(=O)(=O)c1ccc(-c2ccc(Cl)cc2)cc1)C(=O)O` [Example 154]: the IC50 amounted to 30 nM in test [1] and 9 nM in test [2].

As for `COc1cc(Cl)cc(C(=O)NCCC[C@H](NS(=O)(=O)c2ccc(-c3ccc(Cl)cc3)cc2)C(=O)O)c1` [Example 156], the figures for the IC50 in test [1] and in test [2] were 60 nM and 20 nM, respectively.

Regarding `O=C(CCCc1ccccc1)NCCC[C@H](NS(=O)(=O)c1ccc(-c2ccc(Cl)cc2)cc1)C(=O)O` [Example 157], the IC50 is 40 nM in test [1] and 7 nM in test [2].

In the case of `O=C(O)[C@H](CCCN1C(=O)C2CSCN2C1=O)NS(=O)(=O)c1ccc(-c2ccc(Cl)cc2)cc1` (some centres unmarked) [Example 158], the values for the IC50 in test [1] and in test [2] were 7 nM and 2 nM, respectively.

With `O=C(NCCC[C@H](NS(=O)(=O)c1ccc(-c2ccccc2)cc1)C(=O)O)c1ccccc1Cl` [Example 160], the figures for the IC50 in test [1] and in test [2] were 70 nM and 10 nM, respectively.

Regarding `O=C(NCCC[C@H](NS(=O)(=O)c1ccc(-c2ccccc2)cc1)C(=O)O)C1CC1` [Example 161], the IC50 in test [1] was determined as 40 nM; in test [2] it was 4 nM.

The IC50 is the concentration at which inhibition is half-maximal.
